PMC12689914, “Identification of a novel dual-targeting peptide inhibitor of SARS-CoV-2 RBD and NRP1 through structure-based virtual screening” (Frontiers in Pharmacology, 2025)
Non-standard residues stand in square brackets, D forms with d. Residues, ends and D or L forms follow the SMILES beside them.

System: SARS-CoV-2 Omicron XBB.1.5 pseudovirus
Details: Omicron XBB.1.5 pseudovirus, 48 h

CC(C)C[C@H](NC(=O)[C@H](CCC(=O)O)NC(=O)[C@H](C)NC(=O)[C@@H](N)CCC(=O)O)C(=O)N[C@H](CC(=O)O)C(=O)N[C@H](C(=O)N[C@@H](CO)C(=O)N[C@@H](CC(=O)O)C(=O)N[C@@H](C)C(=O)N[C@@H](Cc1ccccc1)C(=O)N[C@@H](Cc1ccc(O)cc1)C(=O)N[C@@H](CCCNC(=N)N)C(=O)N[C@@H](Cc1ccccc1)C(=O)N[C@@H](Cc1ccccc1)C(=O)N[C@@H](CCCNC(=N)N)C(=O)N[C@@H](CCCNC(=N)N)C(=O)N[C@@H](C)C(=O)N[C@@H](CCCNC(=N)N)C(=O)O)C(C)C [Peptide-1] (H-EAEL[dD]VSDAFYRFFRRAR-OH; N-terminus and C-terminus assumed)
EC50: 620 ± 30 nM
